Test results reported in patent publication US20240277829A1, “HIV-1 VACCINATION AND SAMT-247 MICROBICIDE TO PREVENT HIV-1 INFECTION” (priority 2021, published 2024).

Tests used:
Assay type in all cases: cell-based
[1] = tested on: mucosal Th1 and Th2 cells; test: Frequencies and cytokine levels of macaque rectal mucosal T cells following SAMT-247 and PMA stimulation; conditions: following PMA stimulation
Text: (§1) Additionally, rectal tissue from 9 macaques was used for an in vitro study. The age-matched macaques from this separate study (P204) included 4 animals vaccinated against HIV and 5 naïve animals, all challenged with SHIV. Rectal tissue was obtained post challenge from 7 infected and 2 uninfected animals for the P204 study analysis. Extra cells were available from that collection and were used here for the in vitro study.
(§2) Frequencies and cytokine levels of macaque rectal mucosal NK cells and T cells following SAMT-247 and PMA stimulation. NK/ILC and T cell frequencies and cytokine levels were measured in macaque rectal mucosa. Freshly collected rectal biopsies were processed to single cells and cultured in R10 in the presence/or absence of SAMT-247 and/or PMA for 12 hours. Subsequently, cells were stained for live cells with Live/Dead Blue dye (cat. #L34962, 0.5 μl) from Thermofisher; followed by surface staining with the following: BUV737 anti-CD3 (SP34-2; cat. #741872, 5 μl), BV711 anti-CD4 (L200; cat. #563913, 5 μl), BV650 anti-NKp44 (P44-8; cat. #744302, 5 μl), Alexa700 anti-CD20 (2H7; cat. #560631, 5 μl), BV786 anti-CD45 (D058-1283; cat. #563861, 5 μl) from BD Biosciences; APC-H7 anti-CD11b (ICRF44; cat. #47-0118-42, 5 μl), PE-Cy5 anti-CD95 (ICRF44; cat. #15-0959-42, 5 μl) from eBioscience; BV570 anti-CD8 (RPA-T8; cat. #301038, 5 μl), BV605 anti-CCR6 (G034E3; cat. #353420, 5 μl), APC anti-CXCR3 (G025H7; cat. #353708, 5 μl), from Biolegend and PE-Cy7 anti-NKG2A (Z199; cat. #B10246, 5 μl) from Beckman coulter for 30 minutes at room temperature. This was followed by permeabilization with a FOX3-transcription buffer set (cat. #00-5523-00) from eBioscience according to the manufacture's recommendation and subsequently intracellular staining with the following: BV750 anti-TNF-α (MAB11; cat. #566359, 5 μl), BUV395 anti-IFN-γ (B27; cat. #563563, 5 μl), BV510 anti-GranB (GB11; cat. #563388, 5 μl), BV421 anti-IL-10 (JES3-9D7; cat. #564053, 5 μl) from BD Biosciences; PE-Cy5.5 anti-IL-17 (BL168; cat. #512314, 5 μl) from Biolegend; and FITC anti-Perforin (pf-344; cat. #3465-7, 5 μl) from MABTECH for 30 minutes at room temperature. Flow cytometry acquisitions were performed on a FACSymphony A5 and examined using FACSDiva software (BD Biosciences).

[2] = tested on: macaque rectal mucosal NK cells; test: Frequencies and cytokine levels of macaque rectal mucosal NK/ILCs following SAMT-247 and PMA stimulation
Text: as §1, §2

NKG2A^+ NK cells = test: Intracellular cytokines of human blood NK cells using SAMT-247 and PMA stimulation with or without zinc chelator; conditions: human PBMCs
Experimental: Intracellular cytokines of Human blood NK cells using SAMT-247 and PMA stimulation with or without zinc chelator. The levels of NKG2A^+ NK cells were measured in blood of healthy humans. Human PBMCs were thawed and cultured in R10 in the presence or absence of SAMT-247 and/or PMA for 12 hours. Cells were incubated with or without Zinc chelator TPEN (cat. #P4413-100 MG, 5 μM) for 12 h. Subsequently, PBMCs were surface stained with the following: BUV737 anti-CD3 (SP34-2; cat. #741872, 5 μl), Alexa700 anti-CD20 (2H7; cat. #560631, 5 μl), BV786 anti-CD45 (HI30; cat. #563716, 5 μl) from BD Biosciences; APC-H7 anti-CD11b (ICRF44; cat. #47-0118-42, 5 μl) from eBioscience and PE-Cy7 anti-NKG2A (Z199; cat. #B10246, 5 μl) from Beckman coulter for 30 minutes at room temperature. This was followed by permeabilization with FOX3-transcription buffer set (cat. #00-5523-00) from eBioscience according to the manufacture's recommendation and subsequently intracellular staining with the following: BV750 anti-TNF-α (MAB11; cat. #566359, 5 μl), BUV396 anti-IFN-γ (B27; cat. #563563, 5 μl), BV510 anti-GranB (GB11; cat. #563388, 5 μl) from BD Biosciences; and FITC anti-Perforin (pf-344; cat. #3465-7, 5 μl) from MABTECH for 30 minutes at room temperature. Flow cytometry acquisitions were performed on a FACSymphony A5 and examined using FACSDIVA™ software (BD Biosciences).

[3] = macaque rectal mucosal NK cells, PMA

Compound: CC(=O)Sc1ccccc1C(=O)NCCC(N)=O [SAMT-247]
- IL-10 production in mucosal Th1 cells [1]: increase
- TNF-α production in mucosal Th1 and Th2 cells [1]: significant decrease
- Cytokine ([2]; NKp44^+, Mucosa, PMA): >IL-17
- Function ([2]; NKp44^+, Mucosa, PMA): >Epithelium
- IFN-γ and TNF-α production [2, 3]: decreased
- NKG2A^+ cells expressing granzyme B and perforin [2, 3]: increased
- percentage of NKp44^+ cells producing IL-17 ([2]; mucosal cells from 9 macaques exposed in vitro): augmented
- ability of NKG2A^−NKp44^− cells to produce IFN-γ ([2]; mucosal cells in vitro): tended to decrease
- frequency of the NKG2A^−NKp44^− population ([2]; mucosal cells in vitro): decreased
- expression of granzyme, perforin, or cytokines (NKG2A^+ NK cells; absence of PMA stimulation): did not affect
- percentage of IFN-γ and TNF-α producing NKG2A^+ cells (NKG2A^+ NK cells; presence of PMA): decreased
- percentage of NKG2A^+ NK cells expressing granzyme B and perforin (NKG2A^+ NK cells; presence of PMA): increased
